What was measured:
Type in all cases: functional
[1] = test system: MCF7; test: Average fold change in expression of CYP1A1 after treatment with compound of concentration 0.01 mM in human MCF-7 cells
[2] = test system: MCF7; test: Average fold change in expression of CYP1A1 after treatment with compound of concentration 0.1 mM in human MCF-7 cells
[3] = test system: MCF7; test: Average fold change in expression of CYP1B1 after treatment with compound of concentration 0.01 mM in human MCF-7 cells
[4] = test system: MCF7; test: Average fold change in expression of CYP1B1 after treatment with compound of concentration 0.1 mM in human MCF-7 cells
[5] = test system: MCF7; test: Average fold change in expression of CYP1A1 after treatment with compound of concentration 1 mM in human MCF-7 cells
[6] = test system: MCF7; test: Average fold change in expression of CYP1B1 after treatment with compound of concentration 1 mM in human MCF-7 cells
[7] = test system: MCF7; test: Average fold change in expression of CYP1A1 at 1 mM after co-treatment with compound and TSA in human MCF-7 cells
[8] = test system: MCF7; test: Average fold change in expression of CYP1B1 after co-treatment with compound of concentration 1 mM in human MCF-7 cells
[9] = test system: MCF7; test: Average fold change in expression of CYP1B1 at 1 mM after co-treatment with compound and TSA in human MCF-7 cells
[10] = test system: MCF7; test: Mean B[a]P DNA binding at 4 uM in human MCF-7 cells
[11] = test system: MCF7; test: Mean B[a]P DNA binding at 4 uM after co-treatment with compound and TSA (2 uM) in human MCF-7 cells
[12] = test system: MCF7; test: Average fold change in expression of CYP1A1 at 1 mM after co-treatment with compound and SAHA in human MCF-7 cells
[13] = test system: MCF7; test: Average fold change in expression of CYP1B1 at 1 mM after co-treatment with compound and SAHA in human MCF-7 cells
[14] = test system: MCF7; test: Mean B[a]P DNA binding at 4 uM after co-treatment with compound and SAHA (2 uM) in human MCF-7 cells
[15] = test system: MCF7; test: Average fold change in expression of CYP1A1 after co-treatment with compound of concentration 1 mM in human MCF-7 cells

| Structure (SMILES) | Fold change [1] | Fold change [2] | Fold change [3] | Fold change [4] | Fold change [5] | Fold change [6] | Fold change [7] | Fold change [8] | Fold change [9] | Activity [10] [pmol adducts/mg DNA] | Activity [11] [pmol adducts/mg DNA] | Fold change [12] | Fold change [13] | Activity [14] [pmol adducts/mg DNA] | Fold change [15] |
| --- | --- | --- | --- | --- | --- | --- | --- | --- | --- | --- | --- | --- | --- | --- | --- |
| O=C(CCCCCCC(=O)Nc1ccccc1C(=O)NO)Nc1ccccc1 | 0.77 | 2.86 | 1.1 | 1.62 | 0.98 | 1.58 |  |  |  |  |  |  |  |  |  |
| c1ccc2c(c1)cc1ccc3cccc4ccc2c1c34 [BENZO[DEF]CHRYSENE] | 1.85 | 3.69 | 1.36 | 1.7 | 25.24 | 4.35 | 8.77 | 4.39 | 1.02 | 34.75 | 54.15 | 22.92 | 2.4 | 52.18 | 25.55 |
| CC(/C=C/C(=O)NO)=C\[C@@H](C)C(=O)c1ccc(N(C)C)cc1 [TRICHOSTATIN] | 0.77 | 0.81 | 1.29 | 1.57 | 3.1 | 0.17 |  |  |  |  |  |  |  |  |  |
